The supplement of paper PMC10307832

Key:
Assay in all cases: relative viability (nuclei count vs DMSO), 5 days (fraction); higher = more cells survive
AZ505 + Linsitinib = compound: C1CCC(CC1)N(CCNCCC2=C3C(=C(C=C2)O)NC(=O)CO3)C(=O)CCNCCC4=CC(=C(C=C4)Cl)Cl [AZ505] + C[C@]1(O)C[C@@H](c2nc(-c3ccc4ccc(-c5ccccc5)nc4c3)c3c(N)nccn32)C1 [Linsitinib] (partner 1 µM)
How it was run: (§1)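 For relative viability, nuclei counts in treated wells were divided by those in vehicle wells. Lung cancer cell lines had been pin-tool dosed in 1536-well plates the day after seeding and cultured for 5 days, then fixed and stained in one step (final 0.05% Triton X-100, 1% formaldehyde, 1 ug/ml Hoechst) and imaged at 4×. Doses were one drug alone or a fixed anchor-drug dose plus five library-drug doses (not always all listed) in √10 steps, and values are duplicate-plate medians.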

AZ505 + Navitoclax = compound: C1CCC(CC1)N(CCNCCC2=C3C(=C(C=C2)O)NC(=O)CO3)C(=O)CCNCCC4=CC(=C(C=C4)Cl)Cl [AZ505] + CC1(C)CCC(c2ccc(Cl)cc2)=C(CN2CCN(c3ccc(C(=O)NS(=O)(=O)c4ccc(N[C@H](CCN5CCOCC5)CSc5ccccc5)c(S(=O)(=O)C(F)(F)F)c4)cc3)CC2)C1 [Navitoclax] (partner 0.5 µM)
How it was run: as §1

Dactolisib + Alpelisib = compound: Cn1c(=O)n(-c2ccc(C(C)(C)C#N)cc2)c2c3cc(-c4cnc5ccccc5c4)ccc3ncc21 [Dactolisib] + Cc1nc(NC(=O)N2CCC[C@H]2C(N)=O)sc1-c1ccnc(C(C)(C)C(F)(F)F)c1 [Alpelisib] (partner 2 µM)
How it was run: as §1

AZ505 + Bortezomib = compound: C1CCC(CC1)N(CCNCCC2=C3C(=C(C=C2)O)NC(=O)CO3)C(=O)CCNCCC4=CC(=C(C=C4)Cl)Cl [AZ505] + CC(C)C[C@H](NC(=O)[C@H](Cc1ccccc1)NC(=O)c1cnccn1)B(O)O [Bortezomib] (partner 0.002 µM)
How it was run: as §1

What does the source list for UMC-11?
relative viability (AZ505 + Linsitinib; first compound 0.08 µM): 0.971; relative viability (AZ505 + Linsitinib; first compound 0.253 µM): 1.06; relative viability (AZ505 + Linsitinib; first compound 0.8 µM): 1.01; relative viability (AZ505 + Linsitinib; first compound 2.53 µM): 0.951; relative viability (AZ505 + Linsitinib; first compound 8 µM): 1.05; relative viability (AZ505 + Navitoclax; first compound 0.08 µM): 0.26; relative viability (AZ505 + Navitoclax; first compound 0.253 µM): 0.295; relative viability (AZ505 + Navitoclax; first compound 0.8 µM): 0.327; relative viability (AZ505 + Navitoclax; first compound 2.53 µM): 0.334; relative viability (AZ505 + Navitoclax; first compound 8 µM): 0.373; relative viability (Dactolisib + Alpelisib; first compound 0.002 µM): 0.961; relative viability (Dactolisib + Alpelisib; first compound 0.006325 µM): 0.852; relative viability (Dactolisib + Alpelisib; first compound 0.02 µM): 0.63; relative viability (Dactolisib + Alpelisib; first compound 0.06325 µM): 0.266; relative viability (Dactolisib + Alpelisib; first compound 0.2 µM): 0.243; relative viability (AZ505 + Bortezomib; first compound 0.08 µM): 0.661; relative viability (AZ505 + Bortezomib; first compound 0.253 µM): 0.872; relative viability (AZ505 + Bortezomib; first compound 0.8 µM): 0.68; relative viability (AZ505 + Bortezomib; first compound 2.53 µM): 0.734; relative viability (AZ505 + Bortezomib; first compound 8 µM): 0.939
